Laboratory results from patent publication US20190054109A1, “An antiviral composition and a method for application thereof” (ALLA CHEM, LLC, priority 2017, published 2019).

System: gT1b NS5B HCV
Assay: Anti-HCV activity in Huh7 cell line stably transfected with an HCV replicon
Format: cell-based, hepatitis C virus (HCV) genotype 1b
Method: Evaluation of anti-HCV activity and cytotoxicity for compositions comprising the prodrug of formula 1.1 and Sovaldi®. The antiviral activity of tested compositions comprising the prodrug was evaluated using an Huh7 human hepatocellular carcinoma cell line stably transfected with an HCV replicon. A cell suspension in a complete culture medium (DMEM 1×, Cellgro; cat. #10-013-CV) was transferred into 96-well plates (50 μl per well) with a final density of 7500 cells per well. The serial dilutions of tested prodrugs were prepared from a fresh 200-fold generic solution in DMSO with 11 concentration points and 3-fold dilution for each step starting from 20 nM in a complete medium and were used as 2-fold solutions in two replicates. Minimum 4 hours after planting the cells, 50 μl of serial prodrug dilutions was added to each well. The final prodrug concentration varied from 10 nM to 0.1 pM and that of DMSO, 0.5%. The plate with cells was incubated for 3 days at 37° C. under humidified 5% CO2. Upon completion of incubation, the medium was removed by turning the plate over and shaking it carefully. The cells were fixed for one minute with 100 μl of a 1:1 acetone:methanol solution, washed 3 times with a phosphate buffer (PBS), and blocked for 1 h at room temperature using a 10% fetal bovine serum (FBS) in PBS (150 μl/well). The cells were washed 3 times with PBS and incubated for 2 h at 37° C. with anti-NS5B HCV antibodies (100 μl/well) using Affinity BioReagents (cat. # MA1-080) and diluting the generic solution (1 mg/ml) in a ratio of 1:4000 in 10% FBS-PBS. The cells were washed 3 times with PBS and developed by an OPD solution (100 μl/well) using for each plate one OPD tablet dissolved in a citrate/phosphate buffer (12 ml)), whereto 5 μl of 30% H2O2 was added, for 30 minutes in the dark at room temperature. The reaction was stopped by 2N H2SO4 (100 μl/well), and OD490 was measured using the multifunctional reader Victor^3 V 1420 (Perkin Elmer). The values of EC50 for tested prodrugs were measured from an activity curve plotted using the GraphPad Prizm software.

[1] = Hepatitis C virus, Huh-7, gT1b HCV replicon in Huh7, 10% FBS

## C[C@H](N[P@](=O)(OC[C@H]1O[C@@H](n2ccc(=O)[nH]c2=O)[C@](C)(F)[C@@H]1O)Oc1ccccc1)C(=O)OC1CCC1 [Prodrug 1.1, cyclobutyl (S)-2-{(S)-[(2R,3R,4R,5R)-5-(3,4-dihydro-2,4-dioxo-2H-pyrimidin-1-yl)-3-hydroxy-4-methyl-4-fluoro-tetrahydro-furan-2-ylmethoxy]-phenoxy-phosphorylamino}-propanoate]
[1]
  EC50: 15 to 27 nM
  EC90: 128 nM
Comparison of EC50/EC90
  activity against gT1b HCV relative to Sovaldi: more than three times more active
